Measured values: publication PMC8556085, “Antimicrobial and Antioxidant Secondary Metabolites from Trifolium baccarinii Chiov. (Fabaceae) and Their Mechanisms of Antibacterial Action” (BioMed Research International, 2021)
≈ marks a conversion by molar mass, not a printed value. Marks after values point to notes of the source that are not given here.

Columns and labels:
red blood cells (RBCs) = format: cell-based, Wistar rats (Rattus norvegicus)
Experimental: Wistar rats (Rattus norvegicus) aged 10–12 weeks and weighing 220 to 250 g were randomly selected from our colony. Efforts were also made to minimize animal suffering and to reduce the number of animals used in the experiment. Intraperitoneal injection of the mixture of ketamine (50 mg/kg body weight, BW) and xylazine (10 mg/kg BW) was used to anaesthetize the rats in a dose that is commonly used for operation purposes. And subsequently, the unconscious animals were quickly operated on and the whole blood (10 mL) was collected by cardiac puncture into a conical tube containing Ethylenediaminetetraacetic Acid (EDTA) as an anticoagulant. Red blood cells were harvested by centrifugation at room temperature for 10 min at 1,000 × g and were washed three times in PBS buffer^23. The haemolysis assay was evaluated as previously described.

[1] = Gallic acid equivalent antioxidant capacity (GEAC) assay; details: ABTS radical, 420 nm, 240 s; mean ± SD
Experimental: The GEAC test was performed as described previously with some slight modifications. The laccase was purified from Sclerotinia sclerotiorum according to the described protocol. 20 μL of laccase (1 mM stock solution), 20 μL of test sample, 10 μL of ABTS (2,2′-azino-bis(3-ethylbenzothiazoline-6-sulfonic acid) (74 mM stock solution), and 950 μL of acetate buffer (pH = 5.0, 100 mM) were added in a quartz cuvette. The concentrations of the samples in the assay mixture were 800, 400, 200, 100, and 10 μg/mL for the extracts and 200, 100, 50, 25, and 12.5 μg/mL for the isolated compounds. The content of the generated ABTS^●+ radical was measured at 420 nm after 240 s reaction time and was converted to gallic acid equivalents by the use of a calibration curve (Pearson's correlation coefficient: r = 0.998) constructed with 0, 4, 10, 14, 28, 56, and 84 μM gallic acid standards rather than Trolox. Experiments were done in triplicate and repeated three times with similar results.

[2] = system: Staphylococcus aureus ATCC25923; test: Broth microdilution MIC/MMC; format: cell-based; details: for MBC / MMC/MIC: Staphylococcus aureus ATCC25923; for MIC: Staphylococcus aureus ATCC25923, 24 h, 37°C, read-out: MIC
Experimental: (§1) The antimicrobial activity was performed against five bacterial and two fungal species. The selected microorganisms were the Gram-positive (Staphylococcus aureus ATCC25923, methicillin-resistant Staphylococcus aureus 03 (MRSA03), and methicillin-resistant Staphylococcus aureus 04 (MRSA04)) and Gram-negative (Pseudomonas aeruginosa ATCC27853 and Escherichia coli S2(1)) bacteria and yeast strains of Candida albicans ATCC10231 and Cryptococcus neoformans H99. These microorganisms were taken from our laboratory collection. The fungal and bacterial strains were conserved on Sabouraud Dextrose Agar (SDA, Conda, Madrid, Spain) and nutrient agar (NA, Conda) slants, respectively.
(§2) The antimicrobial activity was investigated by determining the minimum inhibitory concentrations (MICs), minimum bactericidal concentrations (MBC), and minimum fungicidal concentrations (MFCs). MICs of extracts/compounds were monitored using the broth microdilution method. Dimethyl sulfoxide (DMSO, Fisher Chemicals) was used to dissolve the test sample to produce a stock solution that was twofold serially diluted in Mueller-Hinton broth (MHB) for bacteria and Sabouraud Dextrose Broth (SDB) for fungi to obtain a concentration range of 4096 to 0.25 μg/mL. One hundred microliters of each concentration was introduced into a well (96-well microplate) containing 90 μL of SDB or MHB and 10 μL of inoculum (at 1 × 10^6 CFU/mL for bacteria and 1 × 10^5 spores/mL for yeasts) which were added to obtain a final concentration range of 2048 to 0.125 μg/mL. Plates were covered and incubated on the shaker at 37°C, 30°C, and 30°C during 24 h, 48 h, and 72 h for bacteria, Candida albicans, and Cryptococcus neoformans, respectively. The MICs were visually assessed after the incubation period and were considered the lowest sample concentration that inhibits the growth or the visual growth of the organism.
(§3) The positive controls were oxacillin (Sigma-Aldrich, Steinheim, Germany) for bacteria and nystatin (Sigma-Aldrich, Steinheim, Germany) for yeasts, and the negative control was broth with 20 μL of DMSO. The assay was carried out in triplicate.

[3] = system: methicillin-resistant Staphylococcus aureus 03 (MRSA03); test: Broth microdilution MIC/MMC; format: cell-based; details: for MMC/MIC / MBC: MRSA03; for MBC / MIC: Staphylococcus aureus; for MIC: MRSA03, 24 h, 37°C, read-out: MIC
Experimental: as §1, §2, §3

[4] = system: methicillin-resistant Staphylococcus aureus 04 (MRSA04); test: Broth microdilution MIC/MMC; format: cell-based; details: for MMC/MIC / MBC: MRSA04; for MBC / MIC: Staphylococcus aureus; for MIC: MRSA04, 24 h, 37°C, read-out: MIC
Experimental: as §1, §2, §3

[5] = system: Candida albicans ATCC10231; test: Broth microdilution MIC/MMC; format: cell-based
Experimental: as §1, §2, §3

[6] = system: Pseudomonas aeruginosa ATCC27853; test: Broth microdilution MIC/MMC; format: cell-based; details: for MBC / MMC/MIC: Pseudomonas aeruginosa ATCC27853; for MIC: Pseudomonas aeruginosa ATCC27853, 24 h, 37°C, read-out: MIC
Experimental: as §1, §2, §3

[7] = system: Cryptococcus neoformans H99; test: Broth microdilution MIC/MMC; format: cell-based
Experimental: as §1, §2, §3

Escherichia coli S2(1) = test: Broth microdilution MIC/MMC; format: cell-based; details: for MIC: 24 h, 37°C, read-out: MIC
Experimental: as §1, §2, §3

[8] = DPPH free radical scavenging assay; details: mean ± SD
Experimental: The free radical scavenging activity of extracts and compounds was evaluated according to the described method. The EC50 (μg/mL), which is the amount of sample necessary to inhibit by 50% the absorbance of free radical DPPH, was calculated. Vitamin C was used as a standard control. All the analyses were carried out in triplicate and repeated three times.

[9] = system: methicillin-resistant Staphylococcus aureus and methicillin-sensitive S. aureus strains; design: method as in PMID 27284353; details: MRSA and MSSA strains, previous study; cited from earlier work
[10] = system: tested bacteria and yeasts; test: Broth microdilution MIC/MMC, summary over all strains; format: cell-based
Experimental: as §1, §2, §3

catalase = test: Catalase activity in treated bacterial cell lysates; format: cell-based; details: Staphylococcus aureus ATCC25923 and MRSA03, MIC and 1/2xMIC, 24 h
Experimental: (§4) (3) Antioxidant Enzyme Activities. For evaluation of catalase and superoxide dismutase (SOD) activities, Staphylococcus aureus ATCC25923 and MRSA03 (1.5 × 10^8 CFU/mL, 500 μL) cultures from the late exponential growth phase were treated with MIC and 1/2xMIC of the methanol extract (500 μL), compound 5 (500 μL), and oxacillin (500 μL) solutions and incubated at 37°C for 24 h. The suspension was centrifuged at 3000 rpm for 5 min to separate the supernatant. The pellet was washed twice with PBS and resuspended in 500 μL of cell lysate buffer (1 mM EDTA, 10 Mm Tris-HCl, 0.1% Triton-X-100, and 150 mM NaCl) and incubated at 37°C for 1 h. Contents were then centrifuged at 3000 rpm for 5 min, and the supernatant was collected for enzyme activity assays.
Catalase activity. This was assessed by using a kit (Sigma, catalogue no. CAT100) with a cell lysate. Briefly, 750 μL of assay buffer (50 mM) was mixed with 25 μL of 50 mM H2O2 and 10 μL of cell lysate. […] The absorbance was monitored at 520 nm, and the catalase activity was calculated based on the following equation: [Δμ moles (H2O2) × d × 100)/V × t], where Δμ moles (H2O2) is the difference in amount of H2O2 added to the reaction mixture between blank and given samples, d is the dilution of the original sample for catalase reaction, V is the sample volume in catalase reaction, and t is the reaction duration (min).

[11] = system: superoxide dismutase (SOD); test: Superoxide dismutase (SOD) activity in treated bacterial cell lysates; format: cell-based; details: Staphylococcus aureus ATCC25923 and MRSA03, MIC and 1/2xMIC, 24 h
Experimental: as §4
Superoxide dismutase (SOD) activity. This was determined using a kit (Sigma, catalogue no. 19160) in the cell lysate. […] The reaction mixture was incubated in the dark at 37°C for 20 min, and the absorbance was read at 450 nm on a BioTek Synergy 2 multiplate reader. The SOD activity was calculated based on the following formula: [(ABlank1–ABlank3) − (ASample–ABlank2)/(ABlank1–ABlank3) × 100], where Blank 1 contains ultrapure water, WST solution, and enzyme solution, Blank 2 contains sample solution, WST solution, and dilution buffer, and Blank 3 contains ultrapure water, WST solution, and dilution buffer.

[12] = system: Staphylococcus aureus ATCC25923; test: Bacteriolytic assay (time-kill kinetic method, OD600); format: cell-based; details: Staphylococcus aureus ATCC25923 suspension, 2xMIC, after 240 min, compared to the 0 time value
Experimental: (§5) (1) Bacteriolytic Assay. […] Full growth of bacterium in MHB was diluted 100 times and incubated at 37°C to produce an OD600 of 0.8 as a starting inoculum. Sample solutions were added to the starting bacterial suspension to give a final concentration of 2xMIC and incubated at 37°C under agitation at 150 rpm. After the incubation period corresponding to 0, 15, 30, 60, 120, and 240 min, 100 μL was pipetted from each tube and the optical density was recorded at 600 nm using the Biobase UV-Vis spectrophotometer. Corresponding dilutions of test samples were used as blanks. Oxacillin was used as a positive control, and the tubes without an extract/compound served as negative controls. All the measurements were done in triplicate and repeated three times.

[13] = system: Pseudomonas aeruginosa ATCC27853; test: as above; format: cell-based; details: Pseudomonas aeruginosa suspension, 2xMIC, after 240 min, compared to the 0 time value
Experimental: as §5

Compound	MBC [2] [µg/mL]	MMC/MIC [2]	MIC [2] [µg/mL]	MMC/MIC [3]	MBC [3] [µg/mL]	MIC [3] [µg/mL]	MMC/MIC [4]	MBC [4] [µg/mL]	MIC [4] [µg/mL]	MBC [6] [µg/mL]	MMC/MIC [6]	MIC [6] [µg/mL]	MBC (Escherichia coli S2(1)) [µg/mL]	MMC/MIC (Escherichia coli S2(1))	MIC (Escherichia coli S2(1)) [µg/mL]	further results
Triton X-100	–	–	–	–	–	–	–	–	–	–	–	–	–	–	–	lysis of RBCs (red blood cells (RBCs)): about 100%
O=c1cc(-c2ccc(O)c(O)c2)oc2cc(O)cc(O)c12 [compound 3, luteolin]	64 (≈ 224 µM)	2	32 (≈ 112 µM)	1	16 (≈ 55.9 µM)	16 (≈ 55.9 µM)	2	64 (≈ 224 µM)	32 (≈ 112 µM)	64 (≈ 224 µM)	2	32 (≈ 112 µM)	32 (≈ 112 µM)	1	32 (≈ 112 µM)	Gallic acid equivalent antioxidant capacity (GEAC) [1]: 68.30 ± 0.71^f μg/mL; MFC ([5]; Candida albicans ATCC10231): 32 µg/mL (≈ 112 µM); MMC/MIC ([5]; Candida albicans ATCC10231): 2; MIC ([5]; Candida albicans ATCC10231, 48 h, 30°C, read-out: MIC): 16 µg/mL (≈ 55.9 µM); MFC ([7]; Cryptococcus neoformans H99): 16 µg/mL (≈ 55.9 µM); MMC/MIC ([7]; Cryptococcus neoformans H99): 2; MIC ([7]; Cryptococcus neoformans H99, 72 h, 30°C, read-out: MIC): 8 µg/mL (≈ 27.9 µM); DPPH free radical scavenging activity (EC50) [8]: 8.02 ± 1.16^e μg/mL; MIC [9]: 62.5 µg/mL (≈ 218 µM); antimicrobial activity class of pure compounds by cutoff points ([10]; against specific microorganism, cutoff points of ref 33): significant/moderate; MIC ([10]; read-out: MIC (range over the tested microorganisms)): 8 to 32 µg/mL (≈ 27.9 to 112 µM)
Cc1onc(-c2ccccc2)c1C(=O)N[C@@H]1C(=O)N2[C@@H]1SC(C)(C)[C@@H]2C(=O)O [oxacillin, reference compound]	1 (≈ 2.49 µM)	1	1 (≈ 2.49 µM)	2	8 (≈ 19.9 µM)	4 (≈ 9.96 µM)	1	8 (≈ 19.9 µM)	8 (≈ 19.9 µM)	2 (≈ 4.98 µM)	1	2 (≈ 4.98 µM)	32 (≈ 79.7 µM)	2	16 (≈ 39.9 µM)	catalase activity vs untreated cell lysates (catalase): significant concentration-dependent decreases; SOD activity vs untreated cell lysates [11]: significant concentration-dependent decreases; decline in cell turbidity [12]: 2%; decline in cell turbidity [13]: 2%; MMC/MIC (microbicidal activities) ([10]; against all the tested microorganisms): ≤ 4
